Measurements taken from patent publication EP1923473B1, “Bis-diglycolamides (BISDGA) as new extractants for lanthanides [Ln(III)] and actinides [An(III)] from aqueous high-level wastes” (Universidad Autónoma de Madrid, priority 2006, dated 2008).

Columns and labels:
Type in all cases: physicochemical
[1] = Radiolytic stability, extraction capability after irradiation; conditions: after 1000 kGy; irradiated dissolved in n-dodecane/1-octanol (95:5)%vol, equilibrated with 3 mol/L nitric acid
Protocol: The tests of stability against irradiation were carried out in the NAYADE facility at CIEMAT site, with external ^60Co sources with an approximate activity of 5000 Ci, with a homogeneous irradiation flux. The dose rate applied in all the experiments was 4 kGy/h and integrated doses of 250 kGy, 500 kGy, 750 kGy and 1000 kGy were considered. The irradiation device consists of a metal cylinder which is introduced in a rack wherein the ^60CO sources are placed radially, such that the irradiation is homogeneous. The irradiation process is carried out submersing the device in a pool of water with a depth of 4 meters.
Irradiation tests of the solid compound (in the absence of solvent) and of the compound dissolved in the "n-dodecane/1-octanol (95:5)%vol" mixture, equilibrated with 3 mol/L nitric acid, were carried out. The organic solutions were prepared and equilibrated as detailed in the previous sections A) and B).
Once each programmed integrated dose was reached, the extraction capability of the organic samples was evaluated as detailed in section C).
The irradiation of compound 4 in solid form (in the absence of solvent) and dissolved at a 0.1 mol/L concentration in the "n-dodecane/1-octanol 1 (95:5)%vol" mixture, equilibrated with 3 mol/L nitric acid, was carried out. The applied dose rate was 4 kGy/h and the considered integrated doses were 250 kGy, 500 kGy, 750 kGy and 1000 kGy. After each integrated dose, the extraction capability of Am(III) and Eu(III) was evaluated as described in section C.
The considered integrated doses in this experiment were 500 kGy and 1000 kGy at a dose rate of 4 kGy/h.

[2] = Third phase formation in extraction from simulated HLLW; conditions: HLLW without oxalic acid and without HEDTA; TODGA 0.2 mol/L
Protocol: […] Extraction experiments were carried out with said simulated HLLW in a pure form and also adding oxalic acid and HEDTA to it. These complexing agents have shown to be effective in the DIAMEX process for the complexing of Mo, Zr (H2C2O4) and Pd (HEDTA).
The actinides Am (III), Cm (III) and Cf (III) as well as trivalent lanthanides were extracted with high distribution coefficients from HLLW with a 3.2 mol/L nitric acid concentration. […] As expected, Zr and Pd are not co-extracted when complexing agents are added to HLLW.

[3] = Extraction capability from aqueous 3 mol/L nitric acid; conditions: aqueous [HNO3] 3 mol/L spiked with 152Eu(III) and 241Am(III)
Protocol: The organic solutions of the extractant compounds to be tested were prepared dissolving an amount of the extractant compound in the solvent considered in each case to reach the ligand concentration of 0.1 mol/L. The solvents considered were 1-octanol, n-heptane, n-dodecane, the industrial solvent "TPH" (hydrogenated tetrapropylene) used in the "La Hague" reprocessing plant of the COGEMA company (Compagnie générale des matières nucléaires) and different mixtures "TPH/1-octanol or n-dodecane/1-octanol".
Once said solution was obtained, its equilibration was carried out. To that end, 800 µL of the organic solution of the compound to be studied were contacted with 800 µL of nitric acid of 3 mol/L concentration and it was stirred vigorously in an oscillating shaker for 5 minutes. The phases were separated by centrifugation at 5000 rpm. 800 µL of the said organic phase were again contacted with 800 µL of nitric acid of 3 mol/L concentration for another 5 minutes of vigorous shaking. The phases were separated by centrifugation, the organic phase being considered to be equilibrated.
(§1) 600 µL of the organic phase of the compound to be studied, previously equilibrated, were contacted with 600 µL of aqueous phase consisting of a 3 mol/L nitric acid solution spiked with 600 Bq of ^152Eu and 600 Bq of ^241Am. It was stirred vigorously by means of an oscillating shaker for 30 minutes and the phases were separated by centrifugation at 5000 rpm. 400 µL were taken from each of the phases for determining the concentration of the radionuclides ^152Eu and ^241Am. This determination was carried out by means of the high energy gamma spectrometry technique with a high-purity Ge detector (Canberra Inc.), using the 122 keV line for the determination of ^152Eu concentration and the 59.5 keV line for the determination of ^241Am concentration. The distribution coefficient was calculated by relating the concentration of each of the radionuclides in the organic phase and in the aqueous phase, according to the expression: DM = ([M]org)/([M]aq) [formula]
(§2) The distribution coefficients and the selectivity factor of each of them were determined as indicated in sections A) to C).

[4] = Eu/Am selectivity factor in extraction from 3 mol/L nitric acid; conditions: aqueous [HNO3] 3 mol/L
Protocol: as §1
The Eu/Am selectivity factor was calculated by relating the corresponding distribution coefficients of Eu with those of Am in the same experimental conditions: SFEu/Am = DEu /DAm [formula]
as §2

[5] = 0.1 mol/L in TPH/1-octanol (50:50)%vol

Compound | DAm [3, 5] | DEu [3, 5] | SFEu/Am [4, 5] | also measured
CCCCCCCCN(CCCCCCCC)C(=O)COCC(=O)N(CCCCCCCC)CCCCCCCC [TODGA, N,N,N',N'-tetraoctyl diglycolamide, reference compound] |  |  |  | DAm [1]: 121; DEu [1]: 458; third phase [2]: a third phase was observed
CCCCCCCCCCCCOc1cc(CNC(=O)COCC(=O)N(CCCC)CCCC)cc(CNC(=O)COCC(=O)N(CCCC)CCCC)c1 [Compound 11, 2-Di-butylcarbamoylmethoxy-N-[3-[(2-dibutyl-carbamoyl-methoxyacetylamino)methyl]-5-dodecyloxybenzyl]acetamide] | 88 | 335 | 3.8 | 
CCCCCCCCN(CCCCCCCC)C(=O)COCC(=O)NCc1ccc(CNC(=O)COCC(=O)N(CCCCCCCC)CCCCCCCC)cc1 [Compound 8] | 67 | 276 | 4.1 | 
CCCCN(CCCC)C(=O)COCC(=O)NCCCNC(=O)c1cc(C(C)(C)C)cc2c1Oc1c(C(=O)NCCCNC(=O)COCC(=O)N(CCCC)CCCC)cc(C(C)(C)C)cc1C2(C)C [Compound 19, 2,7-di-tert-butyl-9,9-dimethyl-9H-xanthen-4,5-dicarboxylic acid bis-[[3-(2-dibutylcarbamoylmethoxy-acetylamino)propyl]amide]] | 65 | 318 | 4.9 | 
2-Dibutylcarbamoylmethoxy-N-[6-(2-dibutylcarbamoyl-methoxyacetylamino)hexyl]acetamide [Compound 14] | 119 | 215 | 1.8 | 
2-Dioctylcarbamoylmethoxy-N-[6-(2-dioctylcarbamoyl-methoxyacetylamino)hexyl]acetamide [Compound 15] |  |  |  | DAm ([3]; 0.1 mol/L in 1-octanol): 25; DEu ([3]; 0.1 mol/L in 1-octanol): 98; SFEu/Am ([4]; 0.1 mol/L in 1-octanol): 3.9
CC(C)CCN(CCC(C)C)C(=O)COCC(=O)NCc1cccc(CNC(=O)COCC(=O)N(CCC(C)C)CCC(C)C)c1 [Compound 6, 2-[[Bis(3-methylbutyl)carbamoyl]methoxy]-N-[3-[(2-[[bis-(3-methylbutyl)carbamoyl]methoxy]acetylamino)methyl]-benzyl]-acetamide] | 82 | 251 | 3.1 | 
2-Dibutylcarbamoylmethoxy-N-[3-[(2-dibutylcarbamoyl-methoxy-acetylamino)methyl]benzyl]acetamide [Compound 3] | 99 | 183 | 1.9 | 
CCCCCCCCN(CCCCCCCC)C(=O)COCC(=O)N(C)C [DMDODGA, N,N-dimethyl-N',N'-dioctyl-oxapentane-diamide, reference compound] | 477 | 789 | 1.7 | 
CCCCCC(C)Oc1cc(CNC(=O)COCC(=O)N(CCCC)CCCC)cc(CNC(=O)COCC(=O)N(CCCC)CCCC)c1 (stereo not drawn) [Compound 10, 2-Di-butylcarbamoylmethoxy-N-[3-[(2-dibutyl-carbamoyl-methoxyacetylamino)methyl]-5-(1-methylhexyloxy)benzyl]-acetamide] | 41 | 276 | 6.7 | 
CCCCN(CCCC)C(=O)COCC(=O)N(CCCC)CCCC [TBDGA, N,N,N',N'-tetrabutyl-3-oxapentane-diamide, reference compound] | 476 | 680 | 1.4 | 
CCCCCCCCN(C)C(=O)COCC(=O)NCc1cccc(CNC(=O)COCC(=O)N(C)CCCCCCCC)c1 [Compound 5, 2-[(Methyloctylcarbamoyl)methoxy]-N-[3-[(2-[(methyl-octyl-carbamoyl)methoxy]acetylamino]methyl]benzyl]-acetamide] | 83 | 309 | 3.7 | 
